Source: patent publication US8614327B2 (Vertex Pharmaceuticals Incorporated, priority 2004, dated 2013)

Target: T1, ΔF508-CFTR (Homo sapiens, UniProt P13569, DEL508-508)
T1 construct: expressed in transfected cells
Experiment: Membrane potential optical (FRET/VIPR) assay, identification of potentiator compounds
Format: cell-based
Conditions: Table 3, assay not given; for % Activity: relative efficacy
In short: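 NIH3T3 mouse fibroblasts stably expressing ΔF508-CFTR, temperature-corrected 24 h at 27° C., read on VIPR by FRET between CC2-DMPE and DiSBAC2(3). Potentiators identified in a double-addition format, first adding chloride-free (gluconate) medium with or without compound.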

T1 sequence (P13569 with tags, fused parts or gaps DEL508-508): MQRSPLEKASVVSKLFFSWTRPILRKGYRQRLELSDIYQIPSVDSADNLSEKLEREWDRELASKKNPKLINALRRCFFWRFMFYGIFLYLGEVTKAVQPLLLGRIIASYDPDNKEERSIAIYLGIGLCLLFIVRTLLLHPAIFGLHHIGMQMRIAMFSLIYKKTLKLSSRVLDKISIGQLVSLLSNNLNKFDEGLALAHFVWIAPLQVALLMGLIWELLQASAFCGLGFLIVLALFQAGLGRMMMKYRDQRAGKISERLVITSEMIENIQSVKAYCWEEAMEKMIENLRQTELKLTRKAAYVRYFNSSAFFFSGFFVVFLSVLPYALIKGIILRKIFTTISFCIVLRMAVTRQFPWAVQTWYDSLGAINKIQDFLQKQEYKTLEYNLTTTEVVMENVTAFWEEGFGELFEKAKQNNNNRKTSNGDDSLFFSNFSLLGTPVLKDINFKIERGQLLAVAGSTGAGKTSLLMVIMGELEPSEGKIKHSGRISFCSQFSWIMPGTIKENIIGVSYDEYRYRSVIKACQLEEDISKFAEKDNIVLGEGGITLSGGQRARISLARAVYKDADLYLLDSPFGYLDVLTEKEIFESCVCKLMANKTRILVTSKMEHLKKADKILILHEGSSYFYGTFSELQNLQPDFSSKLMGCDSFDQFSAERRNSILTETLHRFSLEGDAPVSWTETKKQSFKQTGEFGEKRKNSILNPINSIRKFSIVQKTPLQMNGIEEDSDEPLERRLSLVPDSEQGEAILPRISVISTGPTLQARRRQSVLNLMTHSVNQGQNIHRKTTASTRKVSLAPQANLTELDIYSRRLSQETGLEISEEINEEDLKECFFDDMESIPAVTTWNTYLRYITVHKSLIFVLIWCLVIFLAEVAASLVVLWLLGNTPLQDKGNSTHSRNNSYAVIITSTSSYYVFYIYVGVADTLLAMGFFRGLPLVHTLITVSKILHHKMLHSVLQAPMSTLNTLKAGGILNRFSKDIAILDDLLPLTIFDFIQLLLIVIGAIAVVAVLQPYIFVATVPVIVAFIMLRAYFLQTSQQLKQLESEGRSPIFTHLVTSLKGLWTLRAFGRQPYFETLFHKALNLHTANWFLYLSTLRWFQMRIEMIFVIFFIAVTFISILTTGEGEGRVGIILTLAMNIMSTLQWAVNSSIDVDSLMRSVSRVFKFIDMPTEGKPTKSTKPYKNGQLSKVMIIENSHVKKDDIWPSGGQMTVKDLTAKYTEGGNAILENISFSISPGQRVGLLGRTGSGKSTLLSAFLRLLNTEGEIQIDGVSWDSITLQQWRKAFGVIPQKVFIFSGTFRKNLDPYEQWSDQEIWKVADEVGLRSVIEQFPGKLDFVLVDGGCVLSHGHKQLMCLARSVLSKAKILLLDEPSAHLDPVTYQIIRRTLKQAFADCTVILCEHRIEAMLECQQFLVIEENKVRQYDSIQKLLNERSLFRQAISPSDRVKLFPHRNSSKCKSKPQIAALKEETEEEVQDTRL

Row | EC50 [µM] | % Activity | Compound
1 | < 10 | ++ (between 25% to 100%) | Cc1ccc2c(=O)c(C(=O)Nc3cc(O)c(C4(C)CCCCC4)cc3F)c[nH]c2c1 [Compound 499, N-[2-fluoro-5-hydroxy-4-(1-methylcyclohexyl)-phenyl]-7-methyl-4-oxo-1H-quinoline-3-carboxamide]
2 | < 10 | ++ (between 25% to 100%) | CC(C)(C)c1cc2cc[nH]c2cc1NC(=O)c1c[nH]c2cccc(O)c2c1=O [Compound 500, 5-hydroxy-4-oxo-N-(5-tert-butyl-1H-indol-6-yl)-1H-quinoline-3-carboxamide]
3 | < 10 | ++ (between 25% to 100%) | O=C(Nc1cc(O)c(C(F)(F)F)cc1F)c1c[nH]c2ccccc2c1=O [Compound 501, N-[2-fluoro-5-hydroxy-4-(trifluoromethyl)phenyl]-4-oxo-1H-quinoline-3-carboxamide]
4 | < 10 | ++ (between 25% to 100%) | COc1cc(NC(=O)c2c[nH]c3cccc(O)c3c2=O)cc(C(F)(F)F)c1 [Compound 502, 5-hydroxy-N-[3-methoxy-5-(trifluoromethyl)phenyl]-4-oxo-1H-quinoline-3-carboxamide]
5 | < 10 | ++ (between 25% to 100%) | Cc1ccc2[nH]cc(C(=O)Nc3ccc(N4CCCC4C)cc3C(F)(F)F)c(=O)c2c1 (stereo not shown) [Compound 503, 6-methyl-N-[4-(2-methylpyrrolidin-1-yl)-2-(trifluoromethyl)phenyl]-4-oxo-1H-quinoline-3-carboxamide]
6 | < 10 | ++ (between 25% to 100%) | COc1ccc2[nH]cc(C(=O)Nc3ccc(N4CCC(C)(C)C4)cc3C(F)(F)F)c(=O)c2c1 [Compound 504, N-[4-(3,3-dimethylpyrrolidin-1-yl)-2-(trifluoromethyl)phenyl]-6-methoxy-4-oxo-1H-quinoline-3-carboxamide]
7 | < 10 | + (<25%) | CC(C)(C)c1cc(C(C)(C)C)c(NC(=O)c2c[nH]c3c(C#N)cccc3c2=O)cc1O [Compound 505, 8-cyano-N-(5-hydroxy-2,4-ditert-butyl-phenyl)-4-oxo-1H-quinoline-3-carboxamide]
8 | < 10 | ++ (between 25% to 100%) | O=C(Nc1ccc(C(F)(F)F)c(O)c1)c1c[nH]c2ccccc2c1=O [Compound 506, N-[3-hydroxy-4-(trifluoromethyl)phenyl]-4-oxo-1H-quinoline-3-carboxamide]
9 | < 10 | ++ (between 25% to 100%) | CCc1cc(C(C)(C)C)c(O)cc1NC(=O)c1c[nH]c2cccc(O)c2c1=O [Compound 507, N-(2-ethyl-5-hydroxy-4-tert-butyl-phenyl)-5-hydroxy-4-oxo-1H-quinoline-3-carboxamide]
10 |  | ++ (between 25% to 100%) | CC(C)(C)c1c[nH]c2cc(NC(=O)c3c[nH]c4ccccc4c3=O)c(C(F)(F)F)cc12 [Compound 508, 4-oxo-N-[3-tert-butyl-5-(trifluoromethyl)-1H-indol-6-yl]-1H-quinoline-3-carboxamide]
11 | < 10 | ++ (between 25% to 100%) | CC(C)(C)c1cc(C(F)(F)F)c(NC(=O)c2c[nH]c3ccc(F)cc3c2=O)cc1O [Compound 509, 6-fluoro-N-[5-hydroxy-4-tert-butyl-2-(trifluoromethyl)phenyl]-4-oxo-1H-quinoline-3-carboxamide]
12 | < 10 | ++ (between 25% to 100%) | CC(C)(C)c1ccc(NC(=O)c2c[nH]c3ccccc3c2=O)cc1N1CCCCC1 [Compound 510, 4-oxo-N-[3-(1-piperidyl)-4-tert-butyl-phenyl]-1H-quinoline-3-carboxamide]
13 | < 10 | ++ (between 25% to 100%) | Cc1cccc2[nH]cc(C(=O)Nc3ccc(N4CCC[C@@H]4C)cc3C(F)(F)F)c(=O)c12 [Compound 511, (S)-5-methyl-N-(4-(2-methylpyrrolidin-1-yl)-2-(trifluoromethyl)phenyl)-4-oxo-1,4-dihydroquinoline-3-carboxamide]
14 | < 10 | ++ (between 25% to 100%) | O=C(Nc1cc(O)c(C2CCCC2)cc1C#CCO)c1c[nH]c2ccccc2c1=O [Compound 512, N-[4-cyclopentyl-5-hydroxy-2-(3-hydroxyprop-1-ynyl)phenyl]-4-oxo-1H-quinoline-3-carboxamide]
15 | < 10 | ++ (between 25% to 100%) | CN(C)[C@H]1CCN(c2ccc(NC(=O)c3c[nH]c4ccccc4c3=O)c(C(F)(F)F)c2)C1 [Compound 513, (S)-N-(4-(3-(dimethylamino)pyrrolidin-1-yl)-2-(trifluoromethyl)phenyl)-4-oxo-1,4-dihydroquinoline-3-carboxamide]
16 | < 10 | ++ (between 25% to 100%) | O=C(Nc1ccc(C(F)(F)F)cc1N1CCCCC1)c1c[nH]c2ccccc2c1=O [Compound 514, 4-oxo-N-[2-(1-piperidyl)-4-(trifluoromethyl)phenyl]-1H-quinoline-3-carboxamide]
17 |  | + (<25%) | CC(C)(C)c1cc(C(C)(C)C)c(NC(=O)c2c[nH]c3ccc(C(F)(F)F)cc3c2=O)cc1O [Compound 515, N-(5-hydroxy-2,4-ditert-butyl-phenyl)-4-oxo-6-(trifluoromethyl)-1H-quinoline-3-carboxamide]
18 | < 10 | ++ (between 25% to 100%) | Cc1cccc2[nH]cc(C(=O)Nc3ccc(N4[C@@H](C)CC[C@@H]4C)cc3C(F)(F)F)c(=O)c12 [Compound 516, N-(4-((2S,5S)-2,5-dimethylpyrrolidin-1-yl)-2-(trifluoromethyl)phenyl)-5-methyl-4-oxo-1,4-dihydroquinoline-3-carboxamide]
19 | < 10 | + (<25%) | CCOc1cccc2c(=O)c(C(=O)Nc3ccc(C(C)C)cc3C(F)(F)F)c[nH]c12 [Compound 517, 8-ethoxy-N-[4-isopropyl-2-(trifluoromethyl)phenyl]-4-oxo-1H-quinoline-3-carboxamide]
20 | < 10 | ++ (between 25% to 100%) | Cc1cc(C(C)(C)C)c(O)cc1NC(=O)c1c[nH]c2ccccc2c1=O [Compound 518, N-(5-hydroxy-2-methyl-4-tert-butyl-phenyl)-4-oxo-1H-quinoline-3-carboxamide]
21 | < 10 | ++ (between 25% to 100%) | CC(C)(C)c1cc(F)c(NC(=O)c2c[nH]c3c(C#N)cccc3c2=O)cc1O [Compound 519, 8-cyano-N-(2-fluoro-5-hydroxy-4-tert-butyl-phenyl)-4-oxo-1H-quinoline-3-carboxamide]
22 | < 10 | ++ (between 25% to 100%) | CC(C)(C)c1cc(C(C)(C)C)c(NC(=O)c2c[nH]c3cccc(C(F)(F)F)c3c2=O)cc1O [Compound 520, N-(5-hydroxy-2,4-ditert-butyl-phenyl)-4-oxo-5-(trifluoromethyl)-1H-quinoline-3-carboxamide]
23 | < 10 | ++ (between 25% to 100%) | CC1(c2ccc(NC(=O)c3c[nH]c4ccc(F)cc4c3=O)cc2)COC1 [Compound 521, 6-fluoro-N-[4-(3-methyloxetan-3-yl)phenyl]-4-oxo-1H-quinoline-3-carboxamide]
24 | < 10 | ++ (between 25% to 100%) | O=C(Nc1ccc(C2CCCCC2)c(O)c1)c1c[nH]c2cccc(O)c2c1=O [Compound 522, N-(4-cyclohexyl-3-hydroxy-phenyl)-5-hydroxy-4-oxo-1H-quinoline-3-carboxamide]
